Test system: normal human keratinocytes
Assay: Proliferation of normal human keratinocytes cultured as a monolayer (BrdU test; score versus epinephrine)
Type: cell-based
Conditions: at 10^-5 M; keratinocyte monolayer; 72 h
Method: Study of the effect of 1,3,5-trimethoxybenzene on the proliferation of normal human keratinocytes cultured as a monolayer:
The products are tested on 2nd passage normal human keratinocytes cultured in KGM medium (serum-free defined medium sold by the company Clonetics). The range of concentrations is between 10^-4 M and 10^-7 M. The products are tested twice on 2 different plates.
250 ng/ml epinephrine is employed as positive control of the proliferation.
The products are dissolved in dimethyl sulphoxide (DMSO). A 1×10^-2 M mother solution is prepared in DMSO. The following dilutions are carried out in KGM.
The keratinocytes are seeded at 6000 cells/cm^2. After culturing for 24 h, the product is applied to the cells for 72 h. The medium is replaced after treatment for 48 h.
BrdU kit (Boehringer Mannheim).
On the second day of treatment, a thymidine analogue (BrdU) is added to the culture medium overnight. This analogue makes it possible to label the cells during DNA synthesis. On the third day of treatment, the cells which have incorporated BrdU are identified with an anti-BrdU antibody.
For each product, the score (see table) is attributed as a function of the result obtained with respect to epinephrine (positive control for the proliferation).

With `COc1cc(OC)cc(OC)c1` [1,3,5-Trimethoxybenzene, 1,3,5-trimethoxybenzene] the Proliferative effect was “induces proliferation of the keratinocytes”.
